Tested on: XBP-1 splicing in ARPE-19 cells or apoptosis of INS-1 cells expressing mIRE-1
Assay: Cellular assay (XBP1 splicing assay or apoptosis assay)
Format: cell-based
Conditions: data are for the XBP1 splicing assay or the apoptosis assay (not specified per compound)
Description: ARPE-19 cells stably expressing XBP-1 (a.a. 1-376) with nano-luciferase gene sequence linked so it is in frame when XBP-1 is spliced, were cultured in F12 media, 10% FBS, 0.044% sodium bicarbonate, 150 μg/ml hygromycin B and seeded for assays at 5,000 cells in 384 well plates in culture media without hygromycin B and incubated at 37° C./5% CO2. […] After further incubation of 30 minutes thapsigargin was added (final concentration 150 nM) and then another 4 hour incubation. A NanoLuc luciferase assay (Promega) was used according to the manufacturer's instructions to detect the luciferase and luminescence measured on a luminometer (EnVision, PerkinElmer).
Doxycycline (final concentration 100 nM) was added and plates incubated for a further 72 hours. To determine the proportion of apoptotic cells Hoechst 33342 (final concentration 10 μg/mL) was added, then after 30 minutes incubation cells imaged and analyzed on an InCell high content imager.

Q: Which IC50 does the source give for `CCc1nc(-c2ccc(NC(=O)Nc3cccc(C(F)(F)F)c3)c3ccccc23)c2c(N)ncc(CN3CCNCC3)n12` [Example 20, 3-{4-[8-amino-3-ethyl-5-(piperazin-1-ylmethyl)imidazo[1,5-a]pyrazin-1-yl]naphthalen-1-yl}-1-[3-(trifluoromethyl)phenyl]urea] here?
A: 470 nM

Q: `CC(C)c1nc(-c2ccc(NS(=O)(=O)Cc3ccccc3Cl)c(F)c2)c2c(N)ncc(CN3CCNCC3)n12` [Example 36, N-(4-(8-amino-3-isopropyl-5-(piperazin-1-ylmethyl)imidazo[1,5-a]pyrazin-1-yl)-2-fluorophenyl)-1-(2-chlorophenyl)methanesulfonamide] was tested. Which IC50 did it give?
A: 1530 nM

Q: How did the IC50 turn out when `Cc1cccc2nc(Cc3ccc(-c4nc(C(C)C)n5c(CN6CCNCC6)cnc(N)c45)c4ccccc34)[nH]c12` [Example 37, 3-isopropyl-1-(4-((7-methyl-1H-benzo[d]imidazol-2-yl)methyl)naphthalen-1-yl)-5-(piperazin-1-ylmethyl)imidazo[1,5-a]pyrazin-8-amine] was run?
A: 320 nM

Q: `Cc1nc(-c2ccc(NC(=O)Nc3cccc(C(F)(F)F)c3)c3ccccc23)c2c(N)ncc(C3CCCNC3)n12` (stereo not drawn) [Example 40, 3-{4-[8-amino-3-methyl-5-(piperidin-3-yl)imidazo[1,5-a]pyrazin-1-yl]naphthalen-1-yl}-1-[3-(trifluoromethyl)phenyl]urea] was tested. Which IC50 did it give?
A: 280 nM

Q: How did the IC50 turn out when `CNC1CC=C(c2cnc(N)c3c(-c4ccc(CC(=O)Nc5cc(F)cc(C#N)c5)c5ccccc45)nc(C(C)C)n23)CC1` (stereo not drawn) [Example 67, 2-(4-(8-amino-3-isopropyl-5-(4-(methylamino)cyclohex-1-en-1-yl)imidazo[1,5-a]pyrazin-1-yl)naphthalen-1-yl)-N-(3-cyano-5-fluorophenyl)acetamide] was run?
A: 210 nM

Q: For `CNC1CC=C(c2cnc(N)c3c(-c4ccc(CC(=O)Nc5ccccn5)c5ccccc45)nc(C(C)C)n23)CC1` (stereo not drawn) [Example 68, 2-(4-(8-amino-3-isopropyl-5-(4-(methylamino)cyclohex-1-en-1-yl)imidazo[1,5-a]pyrazin-1-yl)naphthalen-1-yl)-N-(pyridin-2-yl)acetamide], which IC50 is on record?
A: 430 nM

Q: Which IC50 does the source give for `CNC1CC=C(c2cnc(N)c3c(-c4ccc(CC(=O)Nc5cncc(OC)c5)c5ccccc45)nc(C(C)C)n23)CC1` (stereo not drawn) [Example 69, 2-(4-(8-amino-3-isopropyl-5-(4-(methylamino)cyclohex-1-en-1-yl)imidazo[1,5-a]pyrazin-1-yl)naphthalen-1-yl)-N-(5-methoxypyridin-3-yl)acetamide] here?
A: 350 nM

Q: Which IC50 does the source give for `CNC1CC=C(c2cnc(N)c3c(-c4ccc(CC(=O)Nc5cccc(C#N)c5)c5ccccc45)nc(C(C)C)n23)CC1` (stereo not drawn) [Example 70, 2-(4-(8-amino-3-isopropyl-5-(4-(methylamino)cyclohex-1-en-1-yl)imidazo[1,5-a]pyrazin-1-yl)naphthalen-1-yl)-N-(3-cyanophenyl)acetamide] here?
A: 140 nM

Q: How did the IC50 turn out when `CNC1CC=C(c2cnc(N)c3c(-c4ccc(CC(=O)Nc5cccc(OC)c5)c5ccccc45)nc(C(C)C)n23)CC1` (stereo not drawn) [Example 71, 2-(4-(8-amino-3-isopropyl-5-(4-(methylamino)cyclohex-1-en-1-yl)imidazo[1,5-a]pyrazin-1-yl)naphthalen-1-yl)-N-(3-methoxyphenyl)acetamide] was run?
A: 62 nM

Q: `CNC1CC=C(c2cnc(N)c3c(-c4cccc5c(CC(=O)Nc6cccc(F)c6)cccc45)nc(C(C)C)n23)CC1` (stereo not drawn) [Example 81, 2-(5-(8-amino-3-isopropyl-5-(4-(methylamino)cyclohex-1-en-1-yl)imidazo[1,5-a]pyrazin-1-yl)naphthalen-1-yl)-N-(3-fluorophenyl)acetamide] was tested. Which IC50 did it give?
A: 290 nM

Q: For `CNC1CC=C(c2cnc(N)c3c(-c4cccc5c(CC(=O)Nc6ccccc6)cccc45)nc(C(C)C)n23)CC1` (stereo not drawn) [Example 82, 2-(5-(8-amino-3-isopropyl-5-(4-(methylamino)cyclohex-1-en-1-yl)imidazo[1,5-a]pyrazin-1-yl)naphthalen-1-yl)-N-phenylacetamide], which IC50 is on record?
A: 400 nM

Q: For `CNC1CC=C(c2cnc(N)c3c(-c4ccc(NC(=O)Nc5ccccc5)c5ccccc45)nc(C(C)C)n23)CC1` (stereo not drawn) [Example 121, 1-(4-(8-Amino-3-isopropyl-5-(4-(methylamino)cyclohex-1-en-1-yl)imidazo[1,5-a]pyrazin-1-yl)naphthalen-1-yl)-3-phenylurea], which IC50 is on record?
A: 89 nM

Q: `CNC1CC=C(c2cnc(N)c3c(-c4cccc5c(NC(=O)Nc6cccc(F)c6)cccc45)nc(C(C)C)n23)CC1` (stereo not drawn) [Example 123, 1-(5-(8-amino-3-isopropyl-5-(4-(methylamino)cyclohex-1-en-1-yl)imidazo[1,5-a]pyrazin-1-yl)naphthalen-1-yl)-3-(3-fluorophenyl)urea] was tested. Which IC50 did it give?
A: 230 nM

Q: How did the IC50 turn out when `CNC1CC=C(c2cnc(N)c3c(-c4cccc5c(NC(=O)Nc6cccc(C(F)(F)F)c6)cccc45)nc(C(C)C)n23)CC1` (stereo not drawn) [Example 124, 1-(5-(8-amino-3-isopropyl-5-(4-(methylamino)cyclohex-1-en-1-yl)imidazo[1,5-a]pyrazin-1-yl)naphthalen-1-yl)-3-(3-(trifluoromethyl)phenyl)urea] was run?
A: 430 nM

Q: `CNC1CC=C(c2cnc(N)c3c(-c4ccc(NC(=O)Nc5ccc6c(c5)OCCO6)cc4F)nc(C(C)C)n23)CC1` (stereo not drawn) [Example 125, 1-(4-(8-amino-3-isopropyl-5-(4-(methylamino)cyclohex-1-en-1-yl)imidazo[1,5-a]pyrazin-1-yl)-3-fluorophenyl)-3-(2,3-dihydrobenzo[b][1,4]dioxin-6-yl)urea] was tested. Which IC50 did it give?
A: 300 nM

Q: How did the IC50 turn out when `CCc1nc(-c2ccc(NC(=O)Nc3cccc(F)c3)cc2F)c2c(N)ncc(C3=CCC(NC)CC3)n12` (stereo not drawn) [Example 126, 1-(4-(8-amino-3-ethyl-5-(4-(methylamino)cyclohex-1-en-1-yl)imidazo[1,5-a]pyrazin-1-yl)-3-fluorophenyl)-3-(3-fluorophenyl)urea] was run?
A: 450 nM

Q: How did the IC50 turn out when `CNC1CC=C(c2cnc(N)c3c(-c4ccc(NC(=O)Nc5cccc(F)c5)cc4F)nc(C(C)C)n23)CC1` (stereo not drawn) [Example 129, 1-(4-(8-amino-3-isopropyl-5-(4-(methylamino)cyclohex-1-en-1-yl)imidazo[1,5-a]pyrazin-1-yl)-3-fluorophenyl)-3-(3-fluorophenyl)urea] was run?
A: 280 nM

Q: With `CNC1CC=C(c2cnc(N)c3c(-c4ccc(NC(=O)Nc5ccccc5)cc4F)nc(C(C)C)n23)CC1` (stereo not drawn) [Example 130, 1-(4-(8-amino-3-isopropyl-5-(4-(methylamino)cyclohex-1-en-1-yl)imidazo[1,5-a]pyrazin-1-yl)-3-fluorophenyl)-3-phenylurea] as the compound, how does the IC50 read?
A: 410 nM

Q: How did the IC50 turn out when `CNC1CC=C(c2cnc(N)c3c(-c4ccc(NC(=O)NCc5ccccc5)c5ccccc45)nc(C(C)C)n23)CC1` (stereo not drawn) [Example 139, 1-(4-(8-amino-3-isopropyl-5-(4-(methylamino)cyclohex-1-en-1-yl)imidazo[1,5-a]pyrazin-1-yl)naphthalen-1-yl)-3-benzylurea] was run?
A: 380 nM

Q: For `CNC1CC=C(c2cnc(N)c3c(-c4ccc(NC(=O)Nc5ccc6c(c5)OCCO6)c5ccccc45)nc(C(C)C)n23)CC1` (stereo not drawn) [Example 140, 1-(4-(8-amino-3-isopropyl-5-(4-(methylamino)cyclohex-1-en-1-yl)imidazo[1,5-a]pyrazin-1-yl)naphthalen-1-yl)-3-(2,3-dihydrobenzo[b][1,4]dioxin-6-yl)urea], which IC50 is on record?
A: 78 nM

Q: Which IC50 does the source give for `CNC1CC=C(c2cnc(N)c3c(-c4ccc(NC(=O)Nc5cccc(OC)c5)c5ccccc45)nc(C(C)C)n23)CC1` (stereo not drawn) [Example 141, 1-(4-(8-amino-3-isopropyl-5-(4-(methylamino)cyclohex-1-en-1-yl)imidazo[1,5-a]pyrazin-1-yl)naphthalen-1-yl)-3-(3-methoxyphenyl)urea] here?
A: 59 nM

Q: For `CNC1CC=C(c2cnc(N)c3c(-c4ccc(NC(=O)Nc5cccc(C#N)c5)c5ccccc45)nc(C(C)C)n23)CC1` (stereo not drawn) [Example 142, 1-(4-(8-amino-3-isopropyl-5-(4-(methylamino)cyclohex-1-en-1-yl)imidazo[1,5-a]pyrazin-1-yl)naphthalen-1-yl)-3-(3-cyanophenyl)urea], which IC50 is on record?
A: 94 nM

Q: With `CNC1CC=C(c2cnc(N)c3c(-c4ccc(NC(=O)Nc5ccc(OC)c(OC)c5)c5ccccc45)nc(C(C)C)n23)CC1` (stereo not drawn) [Example 143, 1-(4-(8-amino-3-isopropyl-5-(4-(methylamino)cyclohex-1-en-1-yl)imidazo[1,5-a]pyrazin-1-yl)naphthalen-1-yl)-3-(3,4-dimethoxyphenyl)urea] as the compound, how does the IC50 read?
A: 210 nM

Q: How did the IC50 turn out when `CNC1CC=C(c2cnc(N)c3c(-c4ccc(NC(=O)Nc5ccncc5)c5ccccc45)nc(C(C)C)n23)CC1` (stereo not drawn) [Example 144, 1-(4-(8-amino-3-isopropyl-5-(4-(methylamino)cyclohex-1-en-1-yl)imidazo[1,5-a]pyrazin-1-yl)naphthalen-1-yl)-3-(pyridin-4-yl)urea] was run?
A: 490 nM

Q: Which IC50 does the source give for `CNC1CC=C(c2cnc(N)c3c(-c4ccc(NC(=O)Nc5ccc(F)cc5)c5ccccc45)nc(C(C)C)n23)CC1` (stereo not drawn) [Example 145, 1-(4-(8-amino-3-isopropyl-5-(4-(methylamino)cyclohex-1-en-1-yl)imidazo[1,5-a]pyrazin-1-yl)naphthalen-1-yl)-3-(4-fluorophenyl)urea] here?
A: 74 nM

Q: Which IC50 does the source give for `CNC1CC=C(c2cnc(N)c3c(-c4ccc(NC(=O)Nc5cc(F)cc(OC)c5)cc4F)nc(C(C)C)n23)CC1` (stereo not drawn) [Example 146, 1-(4-(8-amino-3-isopropyl-5-(4-(methylamino)cyclohex-1-en-1-yl)imidazo[1,5-a]pyrazin-1-yl)-3-fluorophenyl)-3-(3-fluoro-5-methoxyphenyl)urea] here?
A: 240 nM

Q: Which IC50 does the source give for `CNC1CC=C(c2cnc(N)c3c(-c4ccc(NC(=O)Nc5cccnc5)c5ccccc45)nc(C)n23)CC1` (stereo not drawn) [Example 147, 1-(4-(8-amino-3-methyl-5-(4-(methylamino)cyclohex-1-en-1-yl)imidazo[1,5-a]pyrazin-1-yl)naphthalen-1-yl)-3-(pyridin-3-yl)urea] here?
A: 3100 nM

Source: patent publication US11649237B2, “Substituted imidazo[1,5-a]pyrazines for IRE1 inhibition” (Optikira LLC, priority 2017, dated 2023)
